Columns and labels:
Format in all cases: binding
[1] = biological target: T1, GNRHR (Homo sapiens, UniProt P30968); assay: NanoBRET screen HiBiT-GNRHR in HEK293
T1 construct: purchased Promega (in-house HiBiT-GPCR construct library, NanoBRET)
T1 sequence (P30968 1-328): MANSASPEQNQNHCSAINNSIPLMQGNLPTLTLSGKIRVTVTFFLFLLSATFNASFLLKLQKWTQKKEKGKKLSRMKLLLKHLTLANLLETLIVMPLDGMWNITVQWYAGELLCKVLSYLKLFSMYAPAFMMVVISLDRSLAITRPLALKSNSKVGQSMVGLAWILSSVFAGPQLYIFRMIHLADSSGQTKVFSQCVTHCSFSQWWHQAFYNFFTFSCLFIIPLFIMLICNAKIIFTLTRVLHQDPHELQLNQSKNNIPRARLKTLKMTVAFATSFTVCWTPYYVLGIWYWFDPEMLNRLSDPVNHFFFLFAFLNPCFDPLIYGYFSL
Method: (§1) Each tracer candidate was screened across the entire library of HiBiT-GPCR constructs using NanoBRET as the detection modality. As depicted in Figure 4A, the specificity of interactions was evaluated through decrease in BRET due to competitive displacement of a bound tracer by excess parental compound. Each tracer was analyzed for binding to each HiBiT-GPCR fusion in the absence and in the presence of competing parental compound. Briefly, HEK293 cells were transfected with HiBiT-GPCR constructs diluted into promoterless DNA to reduce expression and maximize translocation to the cell surface. Each tracer candidate was then screened at concentrations of 1 μM and 0.1 μM across cells expressing these fusions. Cells were treated for 1.5 h with tracer either alone or in the presence of 20 μM competing parental compound (i.e., control). BRET was measured upon addition of purified LgBiT and subsequent complementation with HiBiT genetically fused to a GPCR. The specificity of interactions was assessed through a decrease in BRET signal due to competitive displacement of the bound tracer. To further gauge the robustness of these interactions, the fold response over the control (i.e., BRETtracer/BRETcontrol) was calculated. We chose a 1.5-fold response, which translates to ≥7-fold signal over noise as the minimal threshold required to score an interaction as positive. […]. Below we highlight the screening results obtained for our exemplary fluorescent tracers based on Clozapine, Amitriptyline and AZD1283.
(§2) HiBiT-GPCR DNA constructs were diluted in 10 mM Tris pH 8 to a final concentration of 0.01 μg/μL, arrayed in 96-well plates and stored at −20 °C. For transfection, HEK293 cells were suspended in Opti-MEM (without phenol red) supplemented with 2% fetal bovine serum (Seradigm) and 100 units/mL penicillin–streptomycin (Gibco) at a final concentration of 220,000 cells/mL and dispensed into white 96-well plates at 90 μL/well. Subsequent transfections and screens were carried using an Agilent Bravo Automated Liquid Handling Platform. First, the 96-well HiBiT DNA arrays were diluted 25-fold in Opti-MEM (without serum or phenol red) to a final concentration of 0.0004 μg/μL and 20 μL of the diluted DNAs were transferred into new 96-well plates. Next, promoterless carrier DNA (1 μg/μL) was diluted 25-fold (0.04 μg/μL) and then dispensed into the diluted arrays at 20 μL/well. Following brief mixing, Viafect transfection reagent (Promega) diluted 16-fold into Opti-MEM was dispensed into the plates at 40 μL/well. After mixing by pipetting, plates were incubated for 10 min on the pipetting station deck. The DNA-transfection reagent complexes were then added to plates containing cells. To facilitate the screen, 10 μL of DNA-transfection reagent complexes were added in duplicates to the top 4 and bottom 4 rows, resulting in two identical 48-well arrays per plate. Plates with transfected cells were incubated for 18–20 h at 37 °C/5% CO2. A screen of each tracer across the entire library using two different concentrations requires duplicate plates of transfected cells. Depending on the number of tracers being screened, transfections can be scaled up using the same ratios. The next day, for each tracer, four 20× screening solutions in tracer dilution buffer (Promega) were prepared: two duplicates at final concentration of 20 μM and two duplicates at a final concentration of 2 μM. A competing unmodified compound was added to one of each duplicate at a final concentration of 400 μM. The four resulting solutions were diluted 4-fold in Opti-MEM without serum or phenol red to generate 5× solutions (5 µM and 0.5 µM tracer +/− 100 μM competing compound). To screen the library, a BioTek MultiFlo FX liquid dispenser was used to dispense 22.5 µL of tracer solution to the top 4 rows and 22.5 µL tracer + competing compound solution to the 4 bottom rows. Plates were briefly mixed on an orbital shaker and incubated for 1.5 h at room temperature. […]

[2] = biological target: T2, NTSR1 (Homo sapiens, UniProt P30989); assay: NanoBRET screen HiBiT-NTSR1 in HEK293
T2 construct: purchased Promega (in-house HiBiT-GPCR construct library, NanoBRET)
T2 sequence (P30989 whole entry): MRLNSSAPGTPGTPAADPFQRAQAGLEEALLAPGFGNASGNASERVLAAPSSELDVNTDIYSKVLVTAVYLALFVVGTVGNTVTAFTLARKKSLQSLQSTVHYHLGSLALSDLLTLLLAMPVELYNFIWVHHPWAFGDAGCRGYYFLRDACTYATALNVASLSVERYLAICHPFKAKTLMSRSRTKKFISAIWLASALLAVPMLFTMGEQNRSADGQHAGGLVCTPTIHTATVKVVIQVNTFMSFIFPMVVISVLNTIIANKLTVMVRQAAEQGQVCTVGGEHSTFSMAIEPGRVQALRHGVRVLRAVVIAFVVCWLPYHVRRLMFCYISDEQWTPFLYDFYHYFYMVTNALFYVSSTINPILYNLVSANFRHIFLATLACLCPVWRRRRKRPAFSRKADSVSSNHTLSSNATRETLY
Method: as §1, §2

[3] = biological target: T3, GALR3 (Homo sapiens, UniProt O60755); assay: NanoBRET screen HiBiT-GALR3 in HEK293
T3 construct: purchased Promega (in-house HiBiT-GPCR construct library, NanoBRET)
T3 sequence (O60755 1-368): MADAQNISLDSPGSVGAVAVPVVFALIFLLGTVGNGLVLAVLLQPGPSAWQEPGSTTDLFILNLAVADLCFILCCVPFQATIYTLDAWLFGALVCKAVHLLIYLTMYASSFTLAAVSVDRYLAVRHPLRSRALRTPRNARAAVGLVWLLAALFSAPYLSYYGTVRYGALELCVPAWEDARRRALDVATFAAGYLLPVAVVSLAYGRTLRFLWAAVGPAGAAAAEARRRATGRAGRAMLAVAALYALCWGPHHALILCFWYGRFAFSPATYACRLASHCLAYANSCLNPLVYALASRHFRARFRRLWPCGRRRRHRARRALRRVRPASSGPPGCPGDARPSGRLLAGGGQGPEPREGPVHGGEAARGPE
Method: as §1, §2

[4] = biological target: T4, P2RY6 (Homo sapiens, UniProt Q15077); assay: NanoBRET screen HiBiT-P2RY6 in HEK293
T4 construct: purchased Promega (in-house HiBiT-GPCR construct library, NanoBRET)
T4 sequence (Q15077 whole entry): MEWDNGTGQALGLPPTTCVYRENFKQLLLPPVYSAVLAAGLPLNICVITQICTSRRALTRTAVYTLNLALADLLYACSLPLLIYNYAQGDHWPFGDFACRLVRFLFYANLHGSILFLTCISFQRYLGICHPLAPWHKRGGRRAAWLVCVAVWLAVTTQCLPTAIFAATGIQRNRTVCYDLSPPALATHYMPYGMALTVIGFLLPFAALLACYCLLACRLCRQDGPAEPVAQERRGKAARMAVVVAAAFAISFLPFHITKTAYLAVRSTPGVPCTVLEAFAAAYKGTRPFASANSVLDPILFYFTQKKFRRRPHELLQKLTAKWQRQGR
Method: as §1, §2

[5] = biological target: T5, BDKRB1 (Homo sapiens, UniProt P46663); assay: NanoBRET screen HiBiT-BDKRB1 in HEK293
T5 construct: purchased Promega (in-house HiBiT-GPCR construct library, NanoBRET)
T5 sequence (P46663 1-353): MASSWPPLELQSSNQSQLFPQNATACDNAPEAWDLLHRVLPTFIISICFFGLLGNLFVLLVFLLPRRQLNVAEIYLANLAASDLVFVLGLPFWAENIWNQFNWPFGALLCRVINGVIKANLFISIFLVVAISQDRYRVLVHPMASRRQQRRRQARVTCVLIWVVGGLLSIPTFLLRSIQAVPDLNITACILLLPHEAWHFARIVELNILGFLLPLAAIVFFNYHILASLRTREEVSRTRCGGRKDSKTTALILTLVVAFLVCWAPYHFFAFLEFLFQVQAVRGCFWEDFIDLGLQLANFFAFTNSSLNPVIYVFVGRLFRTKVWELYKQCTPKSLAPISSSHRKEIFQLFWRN
Method: as §1, §2

[6] = tracer at 0.1μM, listed as amitriptyline-b-2-NB590
[7] = tracer at 1μM, listed as amitriptyline-b-2-NB590

In the case of CCOC(=O)c1cc(C#N)c(N2CCC(C(=O)NS(=O)(=O)Cc3ccccc3/C=C/C(=O)NCCNC(=O)CCc3ccc4n3[B-](F)(F)[N+]3=C(c5ccc[nH]5)C=CC3=C4)CC2)nc1C [AZD1283-1-NB590], the “NanoBRET Fold Response” value ([1]; GNRHR, 0.1μM) is reported as 1.09, the “NanoBRET Fold Response” value ([1]; GNRHR, 1μM) is reported as 1.08 and the “NanoBRET Fold Response” value ([2]; NTSR1, 0.1μM) is reported as 1.04. The “NanoBRET Fold Response” value ([2]; NTSR1, 1μM) was 1.07, the “NanoBRET Fold Response” value ([3]; GALR3, 0.1μM) was 0.91 and the “NanoBRET Fold Response” value ([3]; GALR3, 1μM) was 1.00. For the same compound, the “NanoBRET Fold Response” value ([4]; P2RY6, 0.1μM) was 1.18, the “NanoBRET Fold Response” value ([4]; P2RY6, 1μM) was 1.04 and the “NanoBRET Fold Response” value ([5]; BDKRB1, 0.1μM) was 1.05. The “NanoBRET Fold Response” value ([5]; BDKRB1, 1μM) was 1.04.

With N#CN=C(NCCCOc1cccc(CN2CCCCC2)c1)NCCNC(=O)CCOCCOCCOCCOCCNC(=O)CCc1ccc2n1[B-](F)(F)[N+]1=C(c3ccc[nH]3)C=CC1=C2 [Aminopotentidine-2-NB590] the “NanoBRET Fold Response” value ([1]; GNRHR, tracer 0.1μM) was 1.04, the “NanoBRET Fold Response” value ([1]; GNRHR, tracer 1μM) was 0.98 and the “NanoBRET Fold Response” value ([2]; NTSR1, tracer 0.1μM) was 1.02. For the same compound, the “NanoBRET Fold Response” value ([2]; NTSR1, tracer 1μM) was 1.03, the “NanoBRET Fold Response” value ([3]; GALR3, tracer 0.1μM) was 1.09 and the “NanoBRET Fold Response” value ([3]; GALR3, tracer 1μM) was 1.01. For the same compound, the “NanoBRET Fold Response” value ([4]; P2RY6, tracer 0.1μM) was 1.12, the “NanoBRET Fold Response” value ([4]; P2RY6, tracer 1μM) was 0.86 and the “NanoBRET Fold Response” value ([5]; BDKRB1, tracer 0.1μM) was 1.01. For the same compound, the “NanoBRET Fold Response” value ([5]; BDKRB1, tracer 1μM) was 1.02.

In the case of CN(C)CCC=C1c2ccccc2CCc2ccc(C(=O)NCCNC(=O)CCOCCOCCOCCOCCNC(=O)CCc3ccc4n3[B-](F)(F)[N+]3=C(c5ccc[nH]5)C=CC3=C4)cc21 [Amitriptyline-a-2-NB590], the “NanoBRET Fold Response” value ([1]; tracer at 0.1μM) is reported as 0.97, the “NanoBRET Fold Response” value ([1]; tracer at 1μM) is reported as 1.06 and the “NanoBRET Fold Response” value ([2]; tracer at 0.1μM) is reported as 1.05. The “NanoBRET Fold Response” value ([2]; tracer at 1μM) was 1.00, the “NanoBRET Fold Response” value ([3]; tracer at 0.1μM) was 0.98 and the “NanoBRET Fold Response” value ([3]; tracer at 1μM) was 1.04. The “NanoBRET Fold Response” value ([4]; tracer at 0.1μM) was 1.00, the “NanoBRET Fold Response” value ([4]; tracer at 1μM) was 0.94 and the “NanoBRET Fold Response” value ([5]; tracer at 0.1μM) was 1.13. The “NanoBRET Fold Response” value ([5]; tracer at 1μM) was 1.04.

In the case of CN(C)CCC=C1c2ccccc2CCc2ccc(C(=O)NCCNC(=O)CCOCCOCCOCCOCCNC(=O)CCc3ccc4n3[B-](F)(F)[N+]3=C(c5ccc[nH]5)C=CC3=C4)cc21 [Amitriptyline-b-2-NB590], the “NanoBRET Fold Response” value [1, 6] is reported as 1.21, the “NanoBRET Fold Response” value [1, 7] is reported as 0.91 and the “NanoBRET Fold Response” value [2, 6] is reported as 0.97. For the same compound, the “NanoBRET Fold Response” value [2, 7] was 1.02, the “NanoBRET Fold Response” value [3, 6] was 1.46 and the “NanoBRET Fold Response” value [3, 7] was 0.95. The “NanoBRET Fold Response” value [4, 6] was 1.04, the “NanoBRET Fold Response” value [4, 7] was 0.95 and the “NanoBRET Fold Response” value [5, 6] was 1.14. The “NanoBRET Fold Response” value [5, 7] was 1.33.

From paper PMC8151276, “An Integrated Approach toward NanoBRET Tracers for Analysis of GPCR Ligand Engagement” (Molecules, 2021)
